According to patent US20140272095A1, “GLUTAMIC ACID DERIVATIVES” (Givaudan S.A., priority 2011, published 2014):

Key:
Type in all cases: in vivo
[1] = Flavourist tasting of a 0.5% NaCl / 0.03% MSG solution, umami intensity versus reference solution A (Example 2); details: 10 ppm compound in 0.5% NaCl and 0.03% MSG; average rating of 4 flavourists versus solution A; scale -3 (much lower than base) to 3 (much higher), 0 = same as base
Protocol: (§1) Two solutions were prepared: • A a solution of 0.5% NaCl and 0.03% MSG • B a solution of 0.5% NaCl and 0.03% MSG and 10 ppm Example 1 compound
(§2) The samples were tasted by a small group of flavourists (2 male, 2 female, aged between 30 and 60). The intensity of the umami and salt taste of solution B was compared with that of the reference (solution A) and rated according to the following intensity scale:
(§3) The results (average of ratings given by the flavourists) were: […]

[2] = Flavourist tasting of a 0.5% NaCl / 0.03% MSG solution, salt intensity versus reference solution A (Example 2); details: 10 ppm compound in 0.5% NaCl and 0.03% MSG; average rating of 4 flavourists versus solution A; scale -3 (much lower than base) to 3 (much higher), 0 = same as base
Protocol: as §1, §2, §3

[3] = Flavourist tasting, enhancement effect on NaCl (solution D versus A, Example 3); details: 10 ppm in 0.5% NaCl; marked between 0 and 10, greater value = greater effect; salt reference solution A = 0.0
Protocol: (§4) Six solutions were prepared: • A a solution of 0.5% NaCl • B a solution of 0.5% NaCl and 0.03% MSG • C a solution of 0.5% NaCl and 0.015% ribonucleotides • D a solution of 0.5% NaCl and 10 ppm Example 1 compound • E a solution of 0.5% NaCl and 0.03% MSG and 10 ppm Example 1 compound • F a solution of 0.5% NaCl and 0.015% ribonucleotides and 10 ppm Example 1 compound
(§5) The samples were tasted by a group of 5-10 flavourists aged between 30 and 60. The taste of solution D is compared with that of A to determine the enhancement effect of Example 1 compound on NaCl. Similarly, solution E is compared with solution B and solution F with solution C to determine the enhancement effect of Example 1 compound on MSG and ribonucleotides respectively. The effect is marked between 0 and 10, the greater the value the greater the effect.

[4] = Flavourist tasting, enhancement effect on MSG (solution E versus B, Example 3); details: 10 ppm in 0.5% NaCl and 0.03% MSG; marked between 0 and 10; MSG reference solution B = 5.0
Protocol: as §4, §5

[5] = Flavourist tasting, enhancement effect on ribonucleotides (solution F versus C, Example 3); details: 10 ppm in 0.5% NaCl and 0.015% ribonucleotides; marked between 0 and 10; ribo reference solution C = 5.0
Protocol: as §4, §5

[6] = Bread comparison by a panel of professional tasters (Example 5); details: bread B: 20 g NaCl and 0.025 g compound in the flour mixture; bread A: 20 g NaCl only
Protocol: A bread flour mixture was prepared by mixing 1250 g of wheat flour, 250 g of white wheat flour and 60 g of yeast. Two salt mixtures were added to separate flour mixtures: • A 20 g of NaCl • B 20 g of NaCl and 0.025 g (+−)-1-aminocyclopentane-trans-1,3-dicarboxylic acid
Doughs were prepared by mixing the ingredients and adding 900 g of water. The doughs were allowed to rise at room temperature for 2 hours and baked at 220° C. for 45 minutes.
A panel of professional tasters compared the breads. The bread B was preferred over reference bread A.

[7] = Bouillon tasting by flavourists versus reference bouillon (Example 4); details: 250 ppm in bouillon (32 g mix in 1 L boiling water); 4 flavourists
Protocol: A bouillon mix was prepared from 155.0 g of sodium chloride, 157.0 g of dextrose monohydrate (ex Tapioca), 0.2 g of celery oleoresin, 0.3 g of oleoresin turmeric Vegex, 0.2 g of oleoresin coriander seed, 444.8 g maltodextrin 5-8 DE, 40.0 g vegetable oil soya bean refined, 30.0 g yeast standard light, 4.0 g of onion powder, 4.0 g of garlic powder, 0.5 g of white pepper and 164.0 g of potato starch.
32 g of the well-mixed ingredients was added to 1 L of boiling water and stirred until completely dissolved.
A small group of flavourists (2 male, 2 female) compared the taste of the reference bouillon with that of a batch of the same bouillon containing 250 ppm of 2-(amino(carboxy)methyl)-cyclopropanecarboxylic acid. The flavourists agreed that the test bouillon was more umami and saltier than the reference bouillon.

## N[C@]1(C(=O)O)CC[C@H](C(=O)O)C1 (racemic) [(±)-1-Aminocyclopentane-cis-1,3-dicarboxylic acid]
[1]
  Intensity Taste Umami: 0.00
[2]
  Intensity Taste Salt (NaCl): 1.00
[3]
  NaCl Taste: 1.3
[4]
  MSG taste: 6.7
[5]
  Ribo taste: 5.2

## N[C@@]1(C(=O)O)CC[C@H](C(=O)O)C1 (racemic) [(±)-1-Aminocyclopentane-trans-1,3-dicarboxylic acid]
[6]
  Preference of bread B over reference bread A: preferred
[1]
  Intensity Taste Umami: 0.00
[2]
  Intensity Taste Salt (NaCl): 1.00
[3]
  NaCl Taste: 2.0
[4]
  MSG taste: 5.3
[5]
  Ribo taste: 6.3

## NC(C(=O)O)C1CC1C(=O)O (centres unmarked) [2-(amino(carboxy)methyl)cyclopropanecarboxylic acid]
[1]
  Intensity Taste Umami: 1.00
[2]
  Intensity Taste Salt (NaCl): 0.00
[3]
  NaCl Taste: 1.2
[7]
  Salt taste of test bouillon versus reference bouillon: saltier
  Umami taste of test bouillon versus reference bouillon: more umami
[4]
  MSG taste: 6.3
[5]
  Ribo taste: 5.7

## CCOC(=O)C(N)C1CC1C(=O)OC.Cl (centres unmarked) [methyl 2-(1-amino-2-ethoxy-2-oxoethyl)cyclopropanecarboxylate, HCl]
[1]
  Intensity Taste Umami: 1.00
[2]
  Intensity Taste Salt (NaCl): 0.00
[3]
  NaCl Taste: 0.0
[4]
  MSG taste: 5.5
[5]
  Ribo taste: 5.4
